# Data as given in PubChem BioAssay AID2694 (The Scripps Research Institute Molecular Screening Center, 2010).
# Molecular target: Mucolipin-3 (Homo sapiens) (UniProt Q8TDD5)
# Assay: TRPML3 channel current activation, late-stage follow-up, orthogonal assay, HEK293, whole-cell patch clamp, -80 mV (AID 2694)
# Conditions: at 10 µM, hits give low values
# Chain of Mucolipin-3 (Homo sapiens) (Q8TDD5 whole entry, looked up): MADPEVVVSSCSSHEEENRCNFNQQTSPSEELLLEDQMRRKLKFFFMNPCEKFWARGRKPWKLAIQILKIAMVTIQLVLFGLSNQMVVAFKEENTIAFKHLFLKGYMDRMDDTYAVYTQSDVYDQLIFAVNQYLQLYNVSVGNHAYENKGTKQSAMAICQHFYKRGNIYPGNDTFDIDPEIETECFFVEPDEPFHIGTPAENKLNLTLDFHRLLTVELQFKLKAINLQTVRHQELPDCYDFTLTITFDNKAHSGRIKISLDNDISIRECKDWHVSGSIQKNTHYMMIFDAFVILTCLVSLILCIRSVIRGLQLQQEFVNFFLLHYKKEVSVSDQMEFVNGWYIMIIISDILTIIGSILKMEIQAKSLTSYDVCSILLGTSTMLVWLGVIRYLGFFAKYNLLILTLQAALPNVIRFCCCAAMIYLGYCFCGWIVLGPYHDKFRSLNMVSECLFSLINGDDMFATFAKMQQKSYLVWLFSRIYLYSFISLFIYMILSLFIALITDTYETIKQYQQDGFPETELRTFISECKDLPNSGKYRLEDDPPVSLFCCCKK
row,Structure (SMILES),current density at -80 mV
1,Cc1ccc(S(=O)(=O)n2nccc2-c2c(-c3ccc(Cl)cc3)noc2C)cc1,-0.14 nA/pF
2,CC1CCN(S(=O)(=O)c2ccc(C(C)C)cc2)CC1,-0.02 nA/pF
3,CCOc1ccc(S(=O)(=O)N2CCCCCC2)c2ccccc12,-0.19 nA/pF
